Results from patent US6664406B1, “Nervonic acid derivatives, their preparation and use” (Croda International PLC, priority 1999, dated 2003).
Like-named read-outs stand apart in the source and are kept apart here. Marks after values point to notes of the source that are not given here.

What was measured:
[1] = tested on: acute EAE in the Lewis rat; assay: Prophylactic effect of glyceryl trinervonate on acute EAE (Comparative Example); type: in vivo
Protocol: Prophylactic effects of glyceryl trinervonate (GTN, Description 4) were assessed on acute EAE in the Lewis rat. Induction and Assessment of EAE was as for Example 4. Dosing regime involved oral administration in Miglyol 810 five days prior to inoculation and for 20 days post-inoculation. (Refer to Example 8 regarding insignificance of use of PBS or Miglyol vehicles).

[2] = Nervonic acid composition of total polar lipid from rat brain (Example 9); type: in vivo; conditions: after Example 6 treatments; NA:GLA at both low and high doses
Protocol: (§1) Upon termination of certain biological evaluations, rat or mice brains were extracted and the fatty acid composition of total polar lipids from rat/mouse brain was determined.
(§2) Biological material was sent for analysis to Dr J. Hendersen at the University of Stirling, Institute of Aquaculture, Scotland. Analyses were carried out on two batches of experiments (detailed respectively in Example 6 and Example 7).

[3] = tested on: neurological EAE in the Lewis rat
Protocol: Male Lewis rats, weighing 230-280 g on the day of inoculation, were injected in each rear footpad with 0.1 ml of an emulsion containing equal parts of guinea pig spinal cord; phosphate buffered saline (PBS) and incomplete Freund's adjuvant supplemented with 10 mg/ml Mycobacterium tuberculosis H37Ra.
(§5) Animals were weighed daily and assessed for neurological disease from day 7 post-inoculation (PI). Rats displaying symptoms of EAE were scored as follows: 1: flaccid tail (FT), 2: hind limb hypotonia (HLH), 3: partial hind limb paralysis (PHLP), 4: complete hind limb paralysis (CHLP), 5: moribund or dead.
NA:GLA (neat oil) was orally administered 5 days prior to inoculation and continued for 25 days PI, at a dose of 750 mg/kg body weight/day and 1000 mg/kg body weight/day. NA:DHA (neat oil) was given by an identical dosing regime at a dose of 500 mg/kg body weight/day. Control-sensitised animals received PBS vehicle or were undosed. Undosed, vehicle and low dose NA:GLA treatments contained 7 animals. Four rats received high dose NA:GLA and 3 rats were dosed with NA:DHA.

[4] = tested on: chronic EAE in the Biozzi mouse model; assay: NA:NA and NA:GLA in ethyl oleate in chronic relapsing EAE (Example 7); type: in vivo; conditions: for AG: Percentage of mice in the group / CFT: Percentage of mice in the group / CHLP: Percentage of mice in the group / HLH: Percentage of mice in the group / PFT: Percentage of mice in the group / PHLP: Percentage of mice in the group: ethyl oleate vehicle
Protocol: (§3) Male Biozzi mice weighing 30-35 g were injected in each flank with 0.15 mL of an emulsion containing lyophilised mouse spinal cord, phosphate buffered saline and incomplete Freund's adjuvant supplemented with Mycobacterium butyricum and Mycobacterium tuberculosis H37Ra.
(§4) 1: Partial Flaccid Tail (PFT), 2: Complete Flaccid Tail (CFT), 3: Impaired Righting Reflex (IRR), 4: Ataxic Gait (AG), 5: Hind Limb Hypotonia (HLH), 6: Partial Hind Limb Paralysis (PHLP), 7: Complete Hind Limb Paralysis (CHLP), 8: Moribund (M), 9: Dead (D).

[5] = tested on: neurological EAE in the Lewis rat; assay: NA:NA (ethyl oleate formulation) in acute EAE (Example 5)
Protocol: Male Lewis rats, weighing 240-360 g on the day of inoculation, were injected in each rear footpad with 0.1 ml of an emulsion containing equal parts of guinea pig spinal cord, phosphate buffered saline (PBS) and incomplete Freund's adjuvant supplemented with 10 mg/ml Mycobacterium tuberculosis H37Ra.
as §5
Control-sensitised animals received ethyl oleate vehicle or were undosed, and each treatment contained 10 animals.
Students t-test was used to assess significant differences in neurological scores and the Fishers exact probability test for the presence or absence of symptoms.

[6] = Miscibility / physical state of oral compositions in vehicle; type: physicochemical; conditions: room temperature (about 20° C.); dilution in vehicle
Source text: Formulations of the present invention suitable for oral administration may be in the form of discrete units such as capsules, cachets, tablets or lozenges, each containing a predetermined amount of the active ingredient; in the form of a powder or granules; in the form of a solution or a suspension in an aqueous liquid or non-aqueous liquid; or in the form of an oil-in-water emulsion or a water-in-oil emulsion. The active ingredient may also be in the form of a bolus, electuary or paste. For such formulations, a range of dilutions of the active ingredient in the vehicle is suitable, such as from 1% to 99%, preferably 5% to 50% and more preferably 10% to 25% dilution. Depending upon the level of dilution, the formulation will be either a liquid at room temperature (in the region of about 20° C.) or a low-melting solid.

[7] = tested on: CREAE in the Biozzi mouse model; assay: NA:NA and NA:GLA in Miglyol 810 in CREAE (Example 8); type: in vivo
Protocol: as §3, §4
Therefore, Miglyol appeared well-suited for use as a vehicle in subsequent studies to determine the efficacy of compounds in CREAE. Therefore, using Miglyol 810 as the new vehicle, prophylactic effects of NA:NA and NA:GLA were re-assessed on CREAE in the Biozzi mouse model (90% dilution, 1000 mg/kg/day, up to 43 days PI).

[8] = Nervonic acid composition of total polar lipid from mouse brain (Example 9); type: in vivo; conditions: CREAE-inoculated mice
Protocol: as §1, §2

[9] = Biozzi mouse, 10% w/w in ethyl oleate, 1000 mg/kg body weight/day
[10] = acute phase, Biozzi mouse, 10% w/w in ethyl oleate, 1000 mg/kg body weight/day
[11] = relapse phase, Biozzi mouse, 10% w/w in ethyl oleate, 1000 mg/kg body weight/day
[12] = 10% w/w in ethyl oleate, 1000 mg/kg body weight/day
[13] = 10% w/w in ethyl oleate, oral 1000 mg/kg body weight/day, n=10
[14] = acute phase, Miglyol 810 vehicle, 1000 mg/kg/day
[15] = acute phase, Miglyol 810 vehicle, n=12, NA:GLA n=11
[16] = relapse phase, Miglyol 810 vehicle, 1000 mg/kg/day
[17] = relapse phase, Miglyol 810 vehicle, NA:GLA n=9, NA:NA n=11

CCCCCCCC/C=C/CCCCCCCCCCCCCC(=O)OCC(COC(=O)CCCCCCCCCCCCC/C=C/CCCCCCCC)OC(=O)CCCCCCCCCCCCC/C=C/CCCCCCCC [GTN, Glyceryl Trinervonate]
onset and loss of symptoms together with duration of the disease ([1]; compared to vehicle or undosed groups): not significantly different from vehicle or undosed groups | adverse effect (body weight gain until day 10) ([1]; dietary administered): did not induce any major adverse effect | effect on parameters associated with neurological deficits in EAE-diseased rats ([1]; oral in Miglyol 810): did not significantly affect any parameter | No. of diseased rats ([1]; oral in Miglyol 810, 5 days prior to inoculation and 20 days PI, n=10): 10/10 | CFT: Percentage of rats in the group ([1]; oral in Miglyol 810, n=10): 100% | CHLP: Percentage of rats in the group ([1]; oral in Miglyol 810, n=10): 40% | HLH: Percentage of rats in the group ([1]; oral in Miglyol 810, n=10): 90% | MD: Percentage of rats in the group ([1]; oral in Miglyol 810, n=10): 0% | Mean day of symptom loss ([1]; oral in Miglyol 810, n=10): 17.0 ± 1.2 days | Mean day of symptom onset ([1]; oral in Miglyol 810, n=10): 11.2 ± 1.2 days | Mean duration of symptoms ([1]; oral in Miglyol 810, n=10): 5.8 ± 1.1 days | Number of dead ([1]; oral in Miglyol 810, n=10): 0/10 | PFT: Percentage of rats in the group ([1]; oral in Miglyol 810, n=10): 100% | PHLP: Percentage of rats in the group ([1]; oral in Miglyol 810, n=10): 70%

CCC=CCC=CCC=CCC=CCC=CC/C=C\CCC(=O)OCCCOC(=O)CCCCCCCCCCCCC/C=C\CCCCCCCC [NA:DHA, 1-(z-15-tetracosenoyloxy)-3-(z-4,7,10,13,16,19-docosahexaenoyloxy)propane]
NA levels in rat brain lipids compared to normal, undosed and vehicle treated animals [2]: did not enhance the NA levels | CHLP: Number of animals showing symptoms/total ([3]; 500 mg/kg/day): 3/3 | FT: Number of animals showing symptoms/total ([3]; 500 mg/kg/day): 3/3 | HLH: Number of animals showing symptoms/total ([3]; 500 mg/kg/day): 3/3 | PHLP: Number of animals showing symptoms/total ([3]; 500 mg/kg/day): 3/3 | daily score ([3]; 500 mg/kg/day): enhanced compared to levels noted for control and NA:GLA-treated animals | development of CHLP ([3]; 500 mg/kg/day): 11.3±1.3 | effect on neurological symptoms ([3]; 500 mg/kg/day): intensified neurological symptoms | Mean day of final symptom loss (±SD) ([3]; neat oil oral 500 mg/kg/day): 19.3 ± 1.2 days | Mean day of symptom onset (±SD) ([3]; neat oil oral 500 mg/kg/day): 10.3 ± 0.6 days | Number of dead/total ([3]; neat oil oral 500 mg/kg/day): 0/3 | Number diseased/total ([3]; neat oil oral 500 mg/kg/day, 5 days prior to inoculation and 25 days PI): 3/3

CCCCCCCC/C=C\CCCCCCCCCCCCCC(=O)OCCCOC(=O)CCCCCCCCCCCCC/C=C\CCCCCCCC [NA:NA, 1,3-di-(z-15-tetracosenoyloxy)propane]
Acute and relapse symptoms (mean neurological scores) [4, 9]: completely abolished | onset of relapse [4, 9]: delayed, but not significantly | Mean day of symptom loss [4, 10]: 24.7 ± 3.2 days | Mean day of symptom onset [4, 10]: 22.3 ± 3.8 days | Mean duration of symptoms [4, 10]: 2.3 ± 1.2 days | Number of dead mice [4, 10]: 0/10 | No. of diseased mice ([4]; acute phase, Biozzi mouse, […], oral 1000 mg/kg body weight/day, 5 days prior to inoculation and 43 days PI, n=10): 3/10 | AG: Percentage of mice in the group ([4]; acute phase, n=10): 20% | CFT: Percentage of mice in the group ([4]; acute phase, n=10): 0% | CHLP: Percentage of mice in the group ([4]; acute phase, n=10): 0% | HLH: Percentage of mice in the group ([4]; acute phase, n=10): 10% | PFT: Percentage of mice in the group ([4]; acute phase, n=10): 10% | PHLP: Percentage of mice in the group ([4]; acute phase, n=10): 0% | Mean day of symptom onset [4, 11]: 43.3 ± 1.2 days | No. of diseased mice [4, 11]: 3/10 | Number of dead mice [4, 11]: 1/10 | AG: Percentage of mice in the group ([4]; relapse phase, n=10): 30% | CFT: Percentage of mice in the group ([4]; relapse phase, n=10): 0% | CHLP: Percentage of mice in the group ([4]; relapse phase, n=10): 0% | HLH: Percentage of mice in the group ([4]; relapse phase, n=10): 30% | PFT: Percentage of mice in the group ([4]; relapse phase, n=10): 20% | PHLP: Percentage of mice in the group ([4]; relapse phase, n=10): 0% | CHLP: Number of animals showing symptoms/total [5, 12]: 1/10 | FT: Number of animals showing symptoms/total [5, 12]: 6/10** | HLH: Number of animals showing symptoms/total [5, 12]: 4/10*** | Neurological scores [5, 12]: consistently lower compared to values recorded for undosed and vehicle-treated animals | PHLP: Number of animals showing symptoms/total [5, 12]: 3/10 | animals that experienced symptoms of disease [5, 12]: 60% | effect on incidence of disease [5, 12]: significantly reduces the incidents of disease | Mean day of final symptom loss (±SD) [5, 13]: 16.3 ± 1.0 days | Mean day of symptom onset (±SD) [5, 13]: 12.3 ± 0.8 days | Mean duration of symptoms (day ± SD) [5, 13]: 4.0 ± 1.2 days | Number of dead/total [5, 13]: 0/10 | Number diseased/total ([5]; […], oral 1000 mg/kg body weight/day, 5 days prior to inoculation and 22 days PI, n=10): 6/10* | concentration at which compositions are liquids at room temperature [6]: ≤ 25% | effect on the neurological course of CREAE ([7]; Biozzi mouse, Miglyol 810 vehicle, 1000 mg/kg/day): did not seem significantly to alter the course of CREAE | No. of diseased mice ([7]; acute phase, Biozzi mouse, Miglyol 810 vehicle (90% dilution), 1000 mg/kg/day, up to 43 days PI): 12/12 | Mean day of symptom loss [7, 14]: 26.3 ± 1.0 days | Mean day of symptom onset [7, 14]: 17.1 ± 1.9 days | Mean duration of symptoms [7, 14]: 9.2 ± 1.6 days | Number of dead mice [7, 14]: 1/12 | AG: Percentage of mice in the group [7, 15]: 100% | CFT: Percentage of mice in the group [7, 15]: 100% | CHLP: Percentage of mice in the group [7, 15]: 58% | D (dead): Percentage of mice in the group [7, 15]: 8% | HLH: Percentage of mice in the group [7, 15]: 100% | IRR: Percentage of mice in the group [7, 15]: 100% | M (moribund): Percentage of mice in the group [7, 15]: 0% | PFT: Percentage of mice in the group [7, 15]: 100% | PHLP: Percentage of mice in the group [7, 15]: 75% | Mean day of symptom loss [7, 16]: 44.0 ± 3.6 days | Mean day of symptom onset [7, 16]: 34.3 ± 6.6 days | Mean duration of symptoms [7, 16]: 13.7 ± 4.0 days | No. of diseased mice [7, 16]: 9/11 | Number of dead mice [7, 16]: 3/11 | AG: Percentage of mice in the group [7, 17]: 82% | CFT: Percentage of mice in the group [7, 17]: 82% | CHLP: Percentage of mice in the group [7, 17]: 73% | D (dead): Percentage of mice in the group [7, 17]: 27% | HLH: Percentage of mice in the group [7, 17]: 82% | IRR: Percentage of mice in the group [7, 17]: 82% | M (moribund): Percentage of mice in the group [7, 17]: 0% | PFT: Percentage of mice in the group [7, 17]: 82% | PHLP: Percentage of mice in the group [7, 17]: 73% | NA levels in mouse brain lipids compared to undosed and vehicle [8]: enhancement of the NA levels in brain lipids

CCCCCCCC/C=C\CCCCCCCC(=O)OCC [ethyl oleate]
effect of the vehicle on incidence and severity of chronic relapsing EAE ([4]; Biozzi mouse, ethyl oleate vehicle alone, compared to undosed): significantly reduced the incidence and severity of the acute and relapsing phases
